# Patent publication US9968097B2 (priority 2012, dated 2018)
# Counter-ions that a name gives are not always drawn. Like-named read-outs stand apart in the source and are kept apart here.
# How the values were obtained:
# Type in all cases: in vivo
# Alternaria solani = test: Alternaria test (tomatoes)/preventive; conditions: preventive, evaluated 3 days after inoculation
# From the text: Alternaria Test (Tomatoes)/Preventive
# Phytophthora infestans = conditions: tomatoes, preventive, evaluated 3 days after inoculation
# Sphaerotheca fuliginea = test: Sphaerotheca test (cucumbers)/preventive; conditions: preventive, evaluated 7 days after inoculation
# From the text: Sphaerotheca Test (Cucumbers)/Preventive
# Botrytis cinerea = test: Botrytis test (beans)/preventive; conditions: 10 ppm a.i., preventive, lesion size 2 days after inoculation
# From the text: Botrytis Test (Beans)/Preventive
# Venturia inaequalis = test: Venturia test (apples)/preventive; conditions: 100 ppm a.i., preventive, evaluated 10 days after inoculation
# From the text: Venturia Test (Apples)/Preventive
molecule,measurement,setting,value
"COCC(=O)N(c1c(C)cccc1C)C(C)C(=O)OC (stereo not drawn) [F241 metalaxyl, metalaxyl]",Efficacy in % found,"Alternaria solani; Table D2, 100 ppm a.i.",8%
"CCCOC(=O)NCCCN(C)C [F220 propamocarb-HCl, propamocarb hydrochloride]",Efficacy in % found,"Alternaria solani; Table D1, 200 ppm a.i.",30%
same,Efficacy in % found,Phytophthora infestans; 400 ppm a.i.,3%
same,Efficacy in % found,Sphaerotheca fuliginea; 400 ppm a.i.,0%
"N#Cc1c[nH]cc1-c1cccc2c1OC(F)(F)O2 [F248 fludioxonil, fludioxonil]",Efficacy in % found,Phytophthora infestans; 100 ppm a.i.,12%
same,Efficacy in % found,Botrytis cinerea,87%
same,Efficacy in % found,Sphaerotheca fuliginea; 100 ppm a.i.,83%
same,Efficacy in % found,Venturia inaequalis,0%
metalaxyl-M (mefenoxam) [F242 mefenoxam],Efficacy in % found,"Alternaria solani; Table D2, 100 ppm a.i.",0%
